Like-named read-outs stand apart in the source and are kept apart here. Square brackets hold non-standard residues; d marks the D form. Peptide text beside a SMILES is read from it. * marks the point of attachment. X1 = CC(C)(O/N=C(\C(=O)N[C@@H]1C(=O)N2C(C(=O)[O-])=C(C[n+]3ccccc3)CS[C@H]12)c1csc(N)n1)C(=O)NCCCCCCN1C(=O)CC(*)C1=O
How the values were obtained:
E. faecalis ATCC 29212 = assay: microbe, parasite or virus in culture; type: cell-based; conditions: E. faecalis ATCC 29212, median (n = 3)
Procedure: (§1) The minimum inhibitory concentration (MIC) of the β‐lactam–peptide conjugates was determined by broth microdilution as previously described.^[ [17] ^] Briefly, in cation‐adjusted MHB II medium, a twofold serial dilution of the compounds was prepared in 96‐well round‐bottom polystyrene or polypropylene microtiter plates with each well containing 50 µL. The plates were inoculated with 50 µL bacterial suspension and the final inoculum, in a total volume of 100 µL, contained 5 × 10^5 CFU mL^−1. The microplates were incubated for 20 h at 37 ± 1 °C. The lowest concentration preventing visible bacterial growth was considered the MIC value. For susceptibility testing of combinations of β‐lactamase‐inhibitors with either a β‐lactam antibiotic or a β‐lactam–peptide conjugate, fixed concentrations of the inhibitors according to the EUCAST (European Committee on Antimicrobial Susceptibility Testing) guidelines (clavulanic acid = 2 mg L^−1, avibactam = 4 mg L^−1) were used.

[1] = tested on: E. casseliflavus ATCC 700327; assay: microbe, parasite or virus in culture; type: cell-based; conditions: E. casseliflavus ATCC 700327, median (n = 3)
Procedure: as §1

B. subtilis DSM 10 = assay: microbe, parasite or virus in culture; type: cell-based
Procedure: as §1

Scintigraphy in mice = type: in vivo, Swiss mice
Procedure: To enable radiolabeling of the β‐lactam–peptide conjugates, their peptide sequence was elongated by an N‐terminal D‐tyrosine. […] The solution was mixed with 5 MBq of iodine‐125 and radiolabeling was performed using the chloramine T method as previously described.^[ [35] ^] After 30 s, the reaction was quenched by the addition of a saturated methionine solution and the radiolabeled compound purified by reversed‐phase preparative radio‐HPLC (1100 series, Agilent Technologies, Santa Clara, CA, USA). Analysis was performed by analytical radio‐HPLC (1100 series, Agilent Technologies, Santa Clara, CA, USA) using a linear gradient from water (+ 0.1% TFA) to acetonitrile (+ 0.1% TFA) over 5 min at a flow rate of 2 mL min^−1.
All animal studies were approved by the Animal Care and Use committees from Regierungspräsidium Karlsruhe (Karlsruhe, Germany; reference number 35–9185.81/G‐199/21; date of approval: November 23, 2021). To obtain scintigraphic images, 1–3 MBq of the respective ^125I‐radiolabeled β‐lactam–peptide conjugate was intravenously injected into the tail vein of isoflurane anaesthetized female Wistar rats or Swiss mice. Scintigraphic images were taken with a γ‐camera (Biospace Lab, Nesles‐la‐Vallée, France) at 10 min, 1, 2, 3, and 24 h after injection of the compounds.

[2] = tested on: A. baumannii SC300007 (Oxa23); assay: microbe, parasite or virus in culture; type: cell-based; conditions: Acinetobacter baumannii, 20 h, combinations: avibactam fixed 4 mg L^−1, clavulanic acid 2 mg L^−1, median (n = 3)
Procedure: as §1

[3] = tested on: K. pneumoniae 0 6841/Nr.45 (Oxa48); assay: microbe, parasite or virus in culture; type: cell-based; conditions: Klebsiella pneumoniae, 20 h; K. pneumoniae 06841/Nr.45 (Oxa48); combinations: avibactam fixed 4 mg L^−1, clavulanic acid 2 mg L^−1; median (n = 3)
Procedure: as §1

[4] = tested on: K. pneumoniae BL809453 (KPC); assay: microbe, parasite or virus in culture; type: cell-based; conditions: Klebsiella pneumoniae, 20 h, combinations: avibactam fixed 4 mg L^−1, clavulanic acid 2 mg L^−1, median (n = 3)
Procedure: as §1

E. coli ATCC 25 922 (–) = assay: microbe, parasite or virus in culture; type: cell-based; conditions: Escherichia coli, 20 h; E. coli ATCC 25922 (no β‐lactamase); combinations: avibactam fixed 4 mg L^−1, clavulanic acid 2 mg L^−1; median (n = 3)
Procedure: as §1

[5] = tested on: K. pneumoniae ATCC 700 603 (SHV‐18); assay: microbe, parasite or virus in culture; type: cell-based; conditions: Klebsiella pneumoniae, 20 h; K. pneumoniae ATCC 700603 (SHV‐18); combinations: avibactam fixed 4 mg L^−1, clavulanic acid 2 mg L^−1; median (n = 3)
Procedure: as §1

PBP2A = target: T1, PBP2A (Bacillus subtilis, UniProt P54488); assay: Gel‐based PBP affinity assay (Bocillin FL competition); type: binding; conditions: B. subtilis membrane fractions, competition with Bocillin FL penicillin; compared with parent β‐lactam
T1 construct: endogenous in cells; host or cells: B. subtilis DSM 10, extracted membrane protein fraction
T1 sequence (P54488 whole entry): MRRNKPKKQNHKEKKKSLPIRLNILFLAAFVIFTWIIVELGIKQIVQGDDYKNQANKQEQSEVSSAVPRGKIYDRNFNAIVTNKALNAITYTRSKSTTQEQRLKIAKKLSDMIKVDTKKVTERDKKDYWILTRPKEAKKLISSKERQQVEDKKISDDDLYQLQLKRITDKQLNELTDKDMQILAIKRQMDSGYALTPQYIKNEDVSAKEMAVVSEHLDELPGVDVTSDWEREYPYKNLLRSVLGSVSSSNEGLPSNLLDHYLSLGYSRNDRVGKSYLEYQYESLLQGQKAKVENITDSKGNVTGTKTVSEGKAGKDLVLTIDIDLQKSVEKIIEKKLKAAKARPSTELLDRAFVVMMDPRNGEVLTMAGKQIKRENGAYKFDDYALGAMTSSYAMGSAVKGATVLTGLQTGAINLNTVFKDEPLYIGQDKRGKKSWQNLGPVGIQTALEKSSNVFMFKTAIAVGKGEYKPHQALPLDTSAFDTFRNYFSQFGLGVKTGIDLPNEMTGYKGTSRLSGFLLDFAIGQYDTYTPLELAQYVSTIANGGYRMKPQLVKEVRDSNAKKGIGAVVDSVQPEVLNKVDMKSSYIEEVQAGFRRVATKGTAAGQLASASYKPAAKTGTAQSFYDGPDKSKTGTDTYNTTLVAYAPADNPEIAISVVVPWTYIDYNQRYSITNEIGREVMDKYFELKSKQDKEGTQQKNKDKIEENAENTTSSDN
Procedure: B. subtilis DSM 10 and E. faecalis ATCC 51 299 (equal to DSM 12 956) membrane protein fractions were extracted according to the protocol of Dean et al. with minor modifications.^[ [34] ^] From a growing overnight bacterial culture, 3 L of LB (Luria‐Bertani) medium or TSB (tryptic soy broth) were inoculated with B. subtilis DSM 10 and E. faecalis ATCC 51 299, respectively, to obtain an OD600 = 0.3. The cultures were grown to an OD600 = 0.6–0.8 while shaking at 37 °C and cells were harvested by centrifugation at 4000 g for 30 min at 4 °C. The resulting pellet was washed twice with pre‐cooled PBS and resuspended in 30 mL of ice‐cooled PBS. The suspension was sonicated on ice (10 cycles of 30 s at 50% power for B. subtilis; 12 cycles of 30 s at 80% power for E. faecalis; 2 min intervals between cycles) using an Omni Ruptor 4000 ultrasonic homogenizer (Omni International, Kennesaw, GA, USA). Afterwards, the suspension was centrifuged at 7000 g for 10 min at 4 °C. The clear supernatant was transferred into a 50 mL polypropylene tube and centrifuged in a Beckman Coulter centrifuge equipped with a JA‐20 fixed‐angle rotor (Beckman Coulter, Krefeld, Germany) at 50 000 g for 1 h at 4 °C. The resulting pellet was washed with ice‐cold PBS and centrifuged a second time. The pellet was resuspended in 2 mL PBS and aliquots were stored at −80 °C. The protein content was determined using Bradford reagent (VWR International, Darmstadt, Germany) and Pierce BCA (bicinchoninic acid) protein assay kits (Thermo Fisher Scientific, Waltham, MA, USA) for membrane fractions of B. subtilis and E. faecalis, respectively.
Each dilution was combined with B. subtilis (30 µg) or E. faecalis (15 µg) extracted membrane fractions. As reference samples, membrane fractions incubated with only PBS were prepared. Reaction mixtures were incubated for 20 min at 37 °C while shaking at 400 rpm. Next, Bocillin FL penicillin (Thermo Fisher Scientific, Waltham, MA, USA) was added to obtain a final concentration of 20 µM in the mixture. Samples were incubated for 30 min at 37 °C while shaking at 400 rpm. To denature the samples, 4× Laemmli sample buffer (Bio‐Rad Laboratories, Feldkirchen, Germany) was added, and the samples incubated for 10 min at 70 °C. Afterwards, the samples were centrifuged for 5 min at 13 000 rpm. Samples were separated by SDS‐PAGE using a 10% Tris‐glycine gel for 100 min at 180 V. The bands were visualized using a Typhoon FLA 9500 imager (GE Healthcare, Chicago, IL, USA) with excitation at 473 nm. The gel images were analyzed using ImageJ software. Brightness and contrast were adjusted to improve the signal‐to‐noise ratio and the background signal was subtracted over the whole image. Next, integrated density values of the gel bands were measured and Bocillin FL penicillin labeling of each PBP in antibiotic‐treated samples were set in proportion to the reference sample. IC50 values were calculated with GraphPad Prism software (version 8.0.1) using inhibitor versus normalized response variable slope and least‐squares fit. […] The mean was calculated using the IC50 values of at least two independent assays for each antibiotic.

[6] = Bacillus subtilis, DSM10, B. subtilis DSM 10, median (n = 3), read-out: MIC
[7] = Swiss mice, i.v., ^125I‐labelled, scintigraphy

NC(=O)CCCCCN1C(=O)C=CC1=O [BB linker, 6‐maleinimidohexanamide linker]
MIC (E. faecalis ATCC 29212): > 64 µg/mL
MIC [1]: > 64 µg/mL
MIC (B. subtilis DSM 10; B. subtilis DSM 10, median (n = 3)): > 64 µg/mL

CC(C)(O/N=C(\C(=O)N[C@@H]1C(=O)N2C(C(=O)[O-])=C(C[n+]3ccccc3)CS[C@H]12)c1csc(N)n1)C(=O)NCCCCCCN1C(=O)CC(SC[C@H](NC(=O)[C@H](CCCCN)NC(=O)[C@H](CCCCN)NC(=O)[C@H](CCCCN)NC(=O)[C@H](CCCCN)NC(=O)[C@H](CCCCN)NC(=O)[C@@H](N)CCCCN)C(N)=O)C1=O (stereo partly shown) [CTZ-K6] (H-KKKKKKC(X1)-NH2; N-terminus assumed)
MIC (B. subtilis DSM 10; DSM 10, 20 h): 0.02 µg/mL
elimination route / biodistribution (Scintigraphy in mice; mouse, in vivo, iv): renal elimination

CC1(C)S[C@@H]2[C@H](NC(=O)[C@H](N)c3ccc(O)cc3)C(=O)N2[C@H]1C(=O)O [AMO, amoxicillin]
MIC [2]: > 64 µg/mL
MIC [3]: > 64 µg/mL
MIC [4]: > 64 µg/mL
MIC (E. coli ATCC 25 922 (–)): 6 µg/mL
MIC (B. subtilis DSM 10; [6]): 0.1 µg/mL
MIC [5]: > 64 µg/mL

CC(C)(O/N=C(\C(=O)N[C@@H]1C(=O)N2C(C(=O)O)=C(C[n+]3ccccc3)CS[C@H]12)c1csc(N)n1)C(=O)NCCCCCCN1C(=O)C=CC1=O [CTZ–BB linker]
MIC (E. faecalis ATCC 29212; Enterococcus faecalis, ATCC29212, read-out: MIC): 1 µg/mL
MIC ([1]; Enterococcus casseliflavus, ATCC700327, read-out: MIC): > 64 µg/mL
MIC (B. subtilis DSM 10; [6]): 24 µg/mL

C[C@H]1[C@H](NC(=O)/C(=N\OC(C)(C)C(=O)O)c2csc(N)n2)C(=O)N1S(=O)(=O)O [AZT, aztreonam]
MIC [2]: 64 µg/mL
MIC (E. coli ATCC 25 922 (–)): 0.06 µg/mL
MIC (B. subtilis DSM 10; Bacillus subtilis, DSM10): 512 µg/mL

C[C@@H](O)[C@H]1C(=O)N2C(C(=O)O)=C(S[C@H]3C[C@@H](C(=O)Nc4cccc(C(=O)O)c4)N(C(=O)C4CCC(CN5C(=O)CC(SC[C@H](NC(=O)[C@H](CCCNC(=N)N)NC(=O)[C@H](CCCNC(=N)N)NC(=O)[C@H](CCCNC(=N)N)NC(=O)[C@H](CCCNC(=N)N)NC(=O)[C@H](CCCNC(=N)N)NC(=O)[C@@H](N)CCCNC(=N)N)C(N)=O)C5=O)CC4)C3)[C@H](C)[C@H]12 (stereo partly shown) [ERT-R6C]
MIC (B. subtilis DSM 10; DSM 10, 20 h): < 0.02 µg/mL
affinity to PBP2A (PBP2A): higher affinity

NC(=O)[C@@H]1CC[C@@H]2CN1C(=O)N2OS(=O)(=O)O [AVI, avibactam]
MIC [2]: > 64 µg/mL
MIC [3]: > 64 µg/mL
MIC [4]: > 64 µg/mL
MIC (E. coli ATCC 25 922 (–)): 16 µg/mL
MIC [5]: > 64 µg/mL

CC(C)(O/N=C(\C(=O)N[C@@H]1C(=O)N2C(C(=O)[O-])=C(C[n+]3ccccc3)CS[C@H]12)c1csc(N)n1)C(=O)NCCCCCCN1C(=O)CC(SC[C@H](NC(=O)[C@H](CCCCN)NC(=O)[C@H](CCCCN)NC(=O)[C@H](CCCCN)NC(=O)[C@H](CCCCN)NC(=O)[C@H](CCCCN)NC(=O)[C@H](CCCCN)NC(=O)[C@H](N)Cc2ccc(O)cc2)C(N)=O)C1=O (stereo partly shown) [CTZ-yK6] (H-[dY]KKKKKKC(X1)-NH2; N-terminus assumed)
elimination route / biodistribution (Scintigraphy in mice; [7]): eliminated by the kidneys

CC(C)(O/N=C(\C(=O)N[C@@H]1C(=O)N2C(C(=O)[O-])=C(C[n+]3ccccc3)CS[C@H]12)c1csc(N)n1)C(=O)NCCCCCCN1C(=O)CC(SC[C@H](NC(=O)[C@H](CCCNC(=N)N)NC(=O)[C@H](CCCNC(=N)N)NC(=O)[C@H](CCCNC(=N)N)NC(=O)[C@H](CCCNC(=N)N)NC(=O)[C@H](CCCNC(=N)N)NC(=O)[C@H](CCCNC(=N)N)NC(=O)[C@H](N)Cc2ccc(O)cc2)C(N)=O)C1=O (stereo partly shown) [CTZ-yR6] (H-[dY]RRRRRRC(X1)-NH2; N-terminus assumed)
elimination route / biodistribution (Scintigraphy in mice; [7]): mainly accumulated in the liver

CC1(C)S[C@@H]2[C@H](NC(=O)[C@H](NC(=O)C3CCC(CN4C(=O)CC(SC[C@H](NC(=O)[C@H](CCCNC(=N)N)NC(=O)[C@H](CCCNC(=N)N)NC(=O)[C@H](CCCNC(=N)N)NC(=O)[C@H](CCCNC(=N)N)NC(=O)[C@H](CCCNC(=N)N)NC(=O)[C@@H](N)CCCNC(=N)N)C(N)=O)C4=O)CC3)c3ccc(O)cc3)C(=O)N2[C@H]1C(=O)O (stereo partly shown) [AMO-R6]
MIC (B. subtilis DSM 10; DSM 10, 20 h): 0.06 µg/mL

O=C(O)[C@H]1/C(=C/CO)O[C@@H]2CC(=O)N21 [CLV, clavulanic acid]
MIC [2]: > 64 µg/mL
MIC [3]: > 64 µg/mL
MIC [4]: > 64 µg/mL
MIC (E. coli ATCC 25 922 (–)): 32 µg/mL
MIC [5]: 64 µg/mL

CC(C)(O/N=C(\C(=O)N[C@@H]1C(=O)N2C(C(=O)[O-])=C(C[n+]3ccccc3)CS[C@H]12)c1csc(N)n1)C(=O)NCCCCCCN1C(=O)CC(SC[C@H](NC(=O)[C@@H](N)CCCCN)C(N)=O)C1=O (stereo partly shown) [CTZ-K1]
MIC (B. subtilis DSM 10; DSM 10, 20 h): 1 µg/mL

CC(C)(O/N=C(\C(=O)N[C@@H]1C(=O)N2C(C(=O)[O-])=C(C[n+]3ccccc3)CS[C@H]12)c1csc(N)n1)C(=O)NCCCCCCN1C(=O)CC(SC[C@H](NC(=O)[C@H](CCC(=O)O)NC(=O)[C@H](CCC(=O)O)NC(=O)[C@H](CCC(=O)O)NC(=O)[C@H](CCC(=O)O)NC(=O)[C@H](CCC(=O)O)NC(=O)[C@@H](N)CCC(=O)O)C(N)=O)C1=O (stereo partly shown) [CTZ-E6]
MIC (B. subtilis DSM 10; DSM 10, 20 h): > 64 µg/mL

— article PMC11672299, “Conjugation of Polycationic Peptides Extends the Efficacy Spectrum of β‐Lactam Antibiotics” (Advanced Science, 2024)
